Assay [1] addresses Dual specificity tyrosine-phosphorylation-regulated kinase 1A (Homo sapiens, UniProt Q13627). In words: Inhibition of recombinant DYRK1A (unknown origin) using Ser/Thr 18 peptide as substrate incubated for 1 hr in presence of ATP by FRET assay.
Assay [2] can be described thus: Induction of chondrogenesis in human MSC assessed as maximum activity at 10 nM incubated for 6 days by rhodamine B and Nile red staining based imaging analysis relative to control. The format is functional. To be noted: BMMSC, 144 h, time 6 day.
Assay [3] is described as follows: Effect on Wnt signaling pathway in human SW480 cells harbouring TCF/LEF luciferase reporter gene and SP5-Luc reporter gene incubated for 36 to 48 hrs by luminescence assay. Format: cell-based. (In general: In a reporter assay the amount or activity of a reporter protein is the signal.)
Assay [4] in a line: Induction of chondrogenesis in human MSC assessed as incubated for 6 days by rhodamine B and Nile red staining based imaging analysis. The format is functional. The note with it: bmmsc.

pEC50: −log10 of the molar value.

As usually defined, the pEC50 is the EC50 on a negative log10 scale, so that one unit is a factor of ten. Usually Emax stands for the size of the effect at its maximum, as opposed to the concentration needed. As to `O=C(Nc1cncc(-c2ccc3[nH]nc(-c4nc5c(-c6ccccc6F)ccnc5[nH]4)c3n2)c1)C(F)(F)F`, the pEC50 was 7.07 in assay [1], less than 5.00 in assay [3] and 8.00 in assay [4]. Moreover, the Emax at 0.01 µM in assay [2] turned out to be 74%.
For `Fc1ccccc1-c1nccc2[nH]c(-c3n[nH]c4cnc(-c5cncc(CN6CCCC6)c5)cc34)cc12`, in that order: 7.39, 5.70, 8.00 and 69.4%.
Consider `CCNCc1cncc(-c2cnc3[nH]nc(-c4cc5c(-c6cccnc6)ccnc5[nH]4)c3c2)c1`, for which the pEC50 is 7.59 in assay [1], less than 5.00 in assay [3] and 8.00 in assay [4]. In assay [2], the Emax at 0.01 µM was determined as 91.8%.
`c1cncc(-c2ccc3[nH]nc(-c4nc5c(-c6cccnc6)cccc5[nH]4)c3n2)c1`: the pEC50 in assay [1] was 7.28; in assay [3], 5.95; in assay [4], 7.52. In assay [2], the maximum response (Emax) at 0.01 µM stood at 57.8%.
For the molecule `Cc1cn(-c2nccc3[nH]c(-c4n[nH]c5ccc(-c6cncc(NC(=O)C(C)(C)C)c6)nc45)nc23)cn1`, the results for the pEC50 in assay [1], in assay [3] and in assay [4] were 7.41, less than 5.00 and 7.52, respectively. Further, the Emax at 0.01 µM in assay [2] was 69.7%.
For the molecule `CC(C)Nc1cncc(-c2cc3c(-c4cc5c(-c6cccnc6)ccnc5[nH]4)n[nH]c3cn2)c1`, the pEC50 is 7.72 in assay [1], less than 5.00 in assay [3] and 8.00 in assay [4]. For the same molecule, in assay [2], the Emax at 0.01 µM worked out at 77%.
In the case of `O=C(Nc1cncc(-c2cc3c(-c4cc5cnccc5[nH]4)n[nH]c3cn2)c1)C1CCCCC1`, the pEC50 in assay [1] was 8.52; in assay [3], 5.79; in assay [4], 7.52. Also, the Emax at 0.01 µM in assay [2] came to 59.4%.
Taken in the same sequence, the figures for `CN(C)Cc1cncc(-c2ccc3[nH]nc(-c4cc5c(-c6ccccc6F)cncc5[nH]4)c3n2)c1` were 7.16, 5.86, 7.52 and 50.6%.
On to `Clc1ccc(-c2cncc3[nH]c(-c4n[nH]c5ccc(-c6cncc(CN7CCCC7)c6)nc45)nc23)s1`, for which the pEC50 in assay [1] was 7.27; in assay [3], 5.48; in assay [4] it was 8.00. Besides, the Emax at 0.01 µM in assay [2] is 62%.
For `CN(C)CCNc1cc(F)cc(-c2cccc3[nH]c(-c4n[nH]c5ccc(-c6cncnc6)nc45)cc23)c1`, in that order: 7.12, 6.38, 8.00 and 181%.
On to `CC(C)Oc1ccc(NC(=O)c2n[nH]c3ccc(-c4cncc(CN5CCCCC5)c4)cc23)cn1`, for which the pEC50 in assay [1] was 7.77; in assay [3], 7.39; in assay [4], 8.00. In addition, in assay [2], the Emax at 0.01 µM came out at 51.9%.
As to `c1ccc(CNCc2cncc(-c3ccc4[nH]nc(-c5cc6c(-c7cccs7)cncc6[nH]5)c4c3)c2)cc1`, the figures for the pEC50 in assay [1], in assay [3] and in assay [4] were 7.20, 6.24 and 8.00, respectively. In assay [2], the Emax at 0.01 µM is 57.4%.
As to `CN(C)c1cncc(-c2ccc3[nH]nc(-c4nc5c(-c6cccs6)cncc5[nH]4)c3n2)c1`, the pEC50 was 7.47 in assay [1], 6.15 in assay [3] and 8.00 in assay [4]. Also, the Emax at 0.01 µM in assay [2] is 65.6%.
For `CC(C)Nc1cncc(-c2ccc3[nH]nc(-c4nc5c(-c6cccnc6)nccc5[nH]4)c3n2)c1`, in that order: 7.85, 6.01, 8.00 and 54.4%.
For `CC(C)CC(=O)Nc1cncc(-c2ccc3[nH]nc(-c4nc5c(-c6ccc(Cl)s6)cncc5[nH]4)c3n2)c1`, in that order: 7.14, 5.83, 8.00 and 60.6%.
Take `O=C(Nc1cncc(-c2ccc3[nH]nc(-c4nc5c(-c6ccc(Cl)s6)cncc5[nH]4)c3n2)c1)C1CCC1`: the pEC50 in assay [1] is 7.14; in assay [3], 6.10; in assay [4] it was 7.52. Besides, the Emax at 0.01 µM in assay [2] is 67.9%.
Taken in the same sequence, the figures for `CN(C)Cc1cncc(-c2cc3c(-c4cc5c(-c6cccc(F)c6)nccc5[nH]4)n[nH]c3cn2)c1` were 7.27, 5.73, 7.52 and 60%.
`c1cnc2[nH]c(-c3n[nH]c4ccc(-c5cncc(CN6CCCCC6)c5)cc34)cc2c1`: the figures for the pEC50 in assay [1], in assay [3] and in assay [4] were 8.40, 5.78 and 8.00, respectively. Moreover, the Emax at 0.01 µM in assay [2] stood at 50.8%.
For `CC(C)Nc1cncc(-c2ccc3[nH]nc(-c4cc5c(-c6cccnc6)cccc5[nH]4)c3c2)c1`, the pEC50 was 7.08 in assay [1], 7.00 in assay [3] and 8.00 in assay [4]. Moreover, the Emax at 0.01 µM in assay [2] amounted to 226%.
Regarding `CC(C)C(=O)Nc1cncc(-c2cc3c(-c4cc5c(-c6cc(F)cc(CNS(C)(=O)=O)c6)nccc5[nH]4)n[nH]c3cn2)c1`, the pEC50 in assay [1] was 7.57; in assay [3], less than 5.00; in assay [4], 7.52. In addition, the Emax at 0.01 µM in assay [2] was found to be 79.5%.
Regarding `c1cncc(-c2ccc3[nH]nc(-c4nc5cnccc5[nH]4)c3n2)c1`, the pEC50 was 7.01 in assay [1], less than 5.00 in assay [3] and 7.52 in assay [4]. Besides, the Emax at 0.01 µM in assay [2] worked out at 54.8%.
For `CC(C)C(=O)Nc1cncc(-c2cc3c(-c4cc5c(-c6cccnc6)cccc5[nH]4)n[nH]c3cn2)c1`, the pEC50 is 7.11 in assay [1], 6.56 in assay [3] and 8.00 in assay [4]. In addition, the Emax at 0.01 µM in assay [2] turned out to be 201%.
For `CN(C)Cc1cncc(-c2ccc3[nH]nc(-c4cc5c(-c6cccc(F)c6)cncc5[nH]4)c3c2)c1`, in that order: 7.37, 5.89, 8.00 and 193%.
For the molecule `CCCC(=O)Nc1cncc(-c2cc3c(-c4cc5c(-c6cc(F)cc(NCCN(C)C)c6)ccnc5[nH]4)n[nH]c3cn2)c1`, the values for the pEC50 in assay [1], in assay [3] and in assay [4] were 7.41, less than 5.00 and 8.00, respectively. In addition, the Emax at 0.01 µM in assay [2] worked out at 162%.
Taken in the same sequence, the figures for `Fc1ccc(-c2nccc3[nH]c(-c4n[nH]c5cnc(-c6cncc(CN7CCC(F)(F)C7)c6)cc45)cc23)cc1` were 8.00, 6.54, 8.00 and 61.2%.
Taken in the same sequence, the figures for `Cc1ncc(-c2cnc3[nH]nc(-c4cc5c(-c6ccncc6)cncc5[nH]4)c3c2)n1C` were 7.55, less than 5.00, 8.00 and 194%.
For `CN1CCN(c2cncc3[nH]c(-c4n[nH]c5ccc(-c6cncc(N)c6)nc45)nc23)CC1`, in that order: 8.05, less than 5.00, 7.52 and 64.6%.
For the molecule `O=C(Nc1cncc(-c2ccc3[nH]nc(-c4cc5c(-c6cccnc6)cncc5[nH]4)c3c2)c1)c1ccccc1`, the pEC50 is 7.46 in assay [1], less than 5.00 in assay [3] and 8.00 in assay [4]. For the same molecule, the Emax at 0.01 µM in assay [2] stood at 68.5%.
On to `CC(C)Nc1cncc(-c2cnc3[nH]nc(-c4cc5c(-c6cccnc6)ccnc5[nH]4)c3c2)c1`, for which the pEC50 in assay [1] was 7.74; in assay [3], less than 5.00; in assay [4], 8.00. In addition, the maximal effect (Emax) at 0.01 µM in assay [2] turned out to be 135%.

The values above are taken from ChEMBL document CHEMBL4739717, “Methods of treating cartilage disorders through inhibition of clk and dyrk” (2020).
